Assay results from patent US10342776B2, “Compositions and methods for controlling infections” (priority 2004, dated 2019).

Tests used:
Salmonella = experiment: Direct toxicity of GML to Salmonella; type: cell-based
Description: (§1) Thus, it was surprising to discover that a number of other bacterial genera (see below) were highly sensitive to the direct toxic effects of GML.

[1] = tested on: Lactobacillus (L. crispatis); experiment: In vitro growth of L. crispatis bacteria with GML; type: cell-based
Description: as §1

Penicillium fungi = experiment: Mycelium formation on Todd Hewitt agar plates containing GML, Penicillium; type: cell-based; details: for mycelium growth on plates: 36 hours, room temperature
Description: Organisms (at the spore phase) of Aspergillus and Penicillium fungi obtained from nature were separately streaked on Todd Hewitt agar plates containing various concentrations of GML. The plates were incubated at room temperature for 36 hours after which mycelium growth was determined by direct visual examination. […] In contrast, the organisms grew on plates containing 0 and 50 μg/ml.

Escherichia coli = experiment: Direct toxicity of GML to Escherichia coli; type: cell-based
Description: as §1

Gardnerella vaginalis = experiment: G. vaginalis growth on chocolate agar plates with GML; type: cell-based; details: 24 hours
Description: Cells (1.2×10^7/ml in a total volume of 25 ml of dialyzable beef heart medium) of a recent clinical isolate of the gram negative rod Gardnerella vaginalis in vitro were cultured for various lengths of time with various concentrations of GML. At the various time points, the concentration of bacteria in the cultures were determined by colony counting on chocolate agar plates. GML at concentrations as low as 5 μg/ml were bactericidal to G. vaginalis. […] This finding points to the likely efficacy of GML in vivo. Moreover, GML (5 μg/ml or greater) inhibited growth of G. vaginalis plated (0.1 ml at 1.2×10^7/ml) onto chocolate agar plates (Table 3; data obtained after 24 hours of culturing).

Neisseria gonorrheae = details: earlier work, U.S. application Ser. No. 10/986,512; cited from earlier work
[2] = tested on: Candida albicans (11 clinical isolates, hyphal phase); experiment: Hyphal phase Candida albicans growth on Todd Hewitt agar plates containing GML; type: cell-based; details: 48 hours
Description: Candida albicans microorganisms were cultured on a Todd Hewitt agar plate for 48 hours at 37° C. in the presence of 7% CO2 to promote growth of hyphal forms. This plate was used to streak the microorganisms for isolation on Todd Hewitt agar plates containing 0, 10, 20, 50, or 100 μg/mL of GML. The plates were incubated for 48 hours and examined for Candida growth. The experiment was done in duplicate plates. The results obtained with duplicate plates were the same.
Organisms (at the hyphal phase) of 11 clinical isolates of Candida albicans were separately streaked on Todd Hewitt agar plates containing various concentrations of GML. The experiments were performed in duplicate. […] In contrast, the organisms grew on plates containing 0, 10 and 20 μg/ml.

[3] = tested on: Candida albicans (five clinical isolates); experiment: Growth inhibition of five other clinical isolates of Candida albicans in liquid culture (absorbance at 600 nm, CFU/ml); type: cell-based; details: for average CFU/ml after culturing: 6 hours, start about 10^6 CFU/ml
Description: Five clinical isolates of Candida albicans (separate from those tested in experiments described in Example 2) were tested for susceptibility to growth inhibition by GML. The data in FIG. 3 are the means of values obtained by separately testing each of the five clinical isolates. The experiments were performed in liquid culture as described in Example 2 except that, instead of measuring the number of organisms in the cultures by plating on agar plates, values of absorbance at 600 nm were determined at the indicated time points. An absorbance value of 6.5 corresponds to about 5×10^8 CFU/ml of Candida albicans. The growth of all of the isolates was inhibited by GML. Culturing for 6 hours 0.1 ml aliquots of the isolates (containing about 10^6 CFU/ml) in 100 μg/ml and 500 μg/ml of GML yielded an average of about 700 CFU/ml and about 400 CFU/ml, respectively.

[4] = GML concentrations up to 100 μg/ml

CCCCCCCCCCCC(=O)OCC(O)CO (centres unmarked) [GML, glycerol monolaurate]
resistance to direct toxicity by GML (Salmonella): relatively resistant
resistance to direct toxicity by GML [1]: relatively resistant
effect on in vitro growth ([1]; GML concentrations up to 50 μg/ml): had no effect
effect on in vitro growth [1, 4]: delayed (but did not stop) its growth
effect on stationary phase survival [1, 4]: extended their stationary phase survival
mycelium growth on plates (Penicillium fungi; 50 μg/ml GML): grew
colony size on plates (Penicillium fungi; 50 μg/ml GML, about 4 days compared to 36 hours): larger in size
mycelium growth on plates (Penicillium fungi; 100 and 500 μg/ml GML): failed to grow
visible colonies on plates (Penicillium fungi; 100 and 500 μg/ml GML, about 4 days): no visible colonies
resistance to direct toxicity by GML (Escherichia coli): relatively resistant
GML concentration that inhibited growth of G. vaginalis (Gardnerella vaginalis): ≥ 5 µg/mL
Growth Characteristics (Gardnerella vaginalis; GML 1 μg/ml): Confluent growth
Growth Characteristics (Gardnerella vaginalis; GML 5 μg/ml): No visible growth
Growth Characteristics (Gardnerella vaginalis; GML 10 μg/ml): No visible growth
Growth Characteristics (Gardnerella vaginalis; GML 20 μg/ml): No visible growth
Growth Characteristics (Gardnerella vaginalis; GML 50 μg/ml): No visible growth
Growth Characteristics (Gardnerella vaginalis; GML 100 μg/ml): No visible growth
resistance to direct toxic effects of GML (Neisseria gonorrheae): relatively resistant
growth on agar plates ([2]; 10 and 20 μg/ml GML): grew
growth on agar plates ([2]; 50 and 100 μg/ml GML): failed to grow
average CFU/ml after culturing ([3]; 100 μg/ml GML): about 700 CFU/ml
average CFU/ml after culturing ([3]; 500 μg/ml GML): about 400 CFU/ml
growth of the isolates ([3]; five clinical isolates, liquid culture, absorbance at 600 nm): inhibited
